Laboratory results from patent US9351974B2, “Substituted pteridinones for the treatment of cancer” (OSI Pharmaceuticals, LLC, priority 2011, dated 2016).

Target: T1, His-tagged full-length RSK2 (RPS6KA3) (Homo sapiens, UniProt P51812)
T1 construct: His-tagged full-length RSK2 (RPS6KA3, Invitrogen PV3323); His; purchased Invitrogen PV3323
Assay: RSK2 Omnia Assay for compound IC50 determination
Type: biochemical
Conditions: ATP 15 μM, n=2, read-out: Mean RSK2 Biochem IC50
Procedure, shortened: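 Continuous fluorescence assay (ex 360/em 485 nm) of SOX-peptide (Omnia ST Peptide 6, 5 μM) phosphorylation with ATP 15 μM (Km 16.3 μM). Enzyme was […], in pH 7.5 HEPES/MgCl2 buffer with 1% DMSO. IC50 came from 11-point threefold dilutions ([…]) by four-parameter fit of initial slopes, in duplicate; Ki by Cheng-Prusoff assuming competitive inhibition.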

T1 sequence (P51812 whole entry): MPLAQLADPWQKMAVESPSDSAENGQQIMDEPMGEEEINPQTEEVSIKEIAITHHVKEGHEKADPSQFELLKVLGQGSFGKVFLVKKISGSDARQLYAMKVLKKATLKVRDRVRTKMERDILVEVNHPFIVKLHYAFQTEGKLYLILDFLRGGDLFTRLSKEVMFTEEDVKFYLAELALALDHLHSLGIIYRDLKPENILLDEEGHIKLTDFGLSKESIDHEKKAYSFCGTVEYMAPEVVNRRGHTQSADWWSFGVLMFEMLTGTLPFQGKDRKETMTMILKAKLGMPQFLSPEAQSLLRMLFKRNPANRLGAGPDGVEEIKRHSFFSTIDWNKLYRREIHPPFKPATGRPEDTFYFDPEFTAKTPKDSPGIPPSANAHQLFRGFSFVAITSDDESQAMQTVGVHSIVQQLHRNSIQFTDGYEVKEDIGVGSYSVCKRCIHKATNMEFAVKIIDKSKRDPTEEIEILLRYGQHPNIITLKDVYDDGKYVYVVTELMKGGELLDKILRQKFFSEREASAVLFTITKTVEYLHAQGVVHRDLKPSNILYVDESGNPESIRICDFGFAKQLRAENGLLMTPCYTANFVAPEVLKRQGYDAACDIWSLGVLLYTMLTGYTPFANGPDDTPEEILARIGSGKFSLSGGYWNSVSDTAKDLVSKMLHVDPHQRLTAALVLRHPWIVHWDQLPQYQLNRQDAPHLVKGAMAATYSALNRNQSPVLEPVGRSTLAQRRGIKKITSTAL

SMILES | IC50 [nM]
CC(C)CCN1c2nc(Nc3ccc4[nH]ncc4c3)ncc2N(c2ccccc2)C(=O)C1(C)C [Example 70, 2-(1H-indazol-5-ylamino)-7,7-dimethyl-8-(3-methylbutyl)-5-phenyl-7,8-dihydropteridin-6(5H)-one] | ≤ 100
C[C@@H]1C(=O)N(c2cccc(C#N)c2)c2cnc(Nc3ccc4[nH]ncc4c3)nc2N1CC1CCC1 [Example 71, 3-[(7R)-8-(cyclobutylmethyl)-2-(1H-indazol-5-ylamino)-7-methyl-6-oxo-7,8-dihydropteridin-5(6H)-yl]benzonitrile] | ≤ 100
C[C@@H]1C(=O)N(c2ccccc2)c2cnc(Nc3ccc4[nH]ncc4c3)nc2N1CC1CCCCC1 [Example 72, (7R)-8-(cyclohexylmethyl)-2-(1H-indazol-5-ylamino)-7-methyl-5-phenyl-7,8-dihydropteridin-6(5H)-one] | ≤ 100
C[C@@H]1C(=O)N(c2ccccc2)c2cnc(Nc3ccc4[nH]ncc4c3)nc2N1CCN(C)C [Example 73, (7R)-8-[2-(dimethylamino)ethyl]-2-(1H-indazol-5-ylamino)-7-methyl-5-phenyl-7,8-dihydropteridin-6(5H)-one] | > 1000
C[C@@H]1C(=O)N(c2ccccc2)c2cnc(Nc3ccc4[nH]ncc4c3)nc2N1CC1CCOCC1 [Example 74, (7R)-2-(1H-indazol-5-ylamino)-7-methyl-5-phenyl-8-(tetrahydro-2H-pyran-4-ylmethyl)-7,8-dihydropteridin-6(5H)-one] | ≤ 100
C[C@@H]1C(=O)N(c2ccccc2)c2cnc(Nc3ccc4[nH]ncc4c3)nc2N1CC1CCCC1 [Example 75, (7R)-8-(cyclopentylmethyl)-2-(1H-indazol-5-ylamino)-7-methyl-5-phenyl-7,8-dihydropteridin-6(5H)-one] | ≤ 100
C[C@@H]1C(=O)N(c2ccccc2)c2cnc(Nc3ccc4[nH]ncc4c3)nc2N1Cc1ccccc1 [Example 76, (7R)-8-benzyl-2-(1H-indazol-5-ylamino)-7-methyl-5-phenyl-7,8-dihydropteridin-6(5H)-one] | ≤ 100
C[C@@H]1C(=O)N(c2ccccc2)c2cnc(Nc3ccc4[nH]ncc4c3)nc2N1CCCO [Example 77, (7R)-8-(3-hydroxypropyl)-2-(1H-indazol-5-ylamino)-7-methyl-5-phenyl-7,8-dihydropteridin-6(5H)-one] | 100 to 1000
C[C@@H]1C(=O)N(c2ccccc2)c2cnc(Nc3ccc4[nH]ncc4c3)nc2N1CC1CCNCC1 [Example 78, (7R)-2-(1H-indazol-5-ylamino)-7-methyl-5-phenyl-8-(piperidin-4-ylmethyl)-7,8-dihydropteridin-6(5H)-one] | > 1000
CC(C)CN1c2nc(Nc3ccc4[nH]ncc4c3)ncc2N(c2ccccc2)C(=O)[C@H]1C [Example 79, (7R)-2-(1H-indazol-5-ylamino)-7-methyl-8-(2-methylpropyl)-5-phenyl-7,8-dihydropteridin-6(5H)-one] | ≤ 100
C[C@@H]1C(=O)N(c2cccc(C#N)c2)c2cnc(Nc3ccc4[nH]ncc4c3)nc2N1CC1CCOCC1 [Example 80, 3-[(7R)-2-(1H-indazol-5-ylamino)-7-methyl-6-oxo-8-(tetrahydro-2H-pyran-4-ylmethyl)-7,8-dihydropteridin-5(6H)-yl]benzonitrile] | ≤ 100
C[C@@H]1C(=O)N(c2cccc(C#N)c2)c2cnc(Nc3ccc4[nH]ncc4c3)nc2N1CC1CCCC1 [Example 81, 3-[(7R)-8-(cyclopentylmethyl)-2-(1H-indazol-5-ylamino)-7-methyl-6-oxo-7,8-dihydropteridin-5(6H)-yl]benzonitrile] | ≤ 100
C[C@@H]1C(=O)N(c2cccc(C#N)c2)c2cnc(Nc3ccc4[nH]ncc4c3)nc2N1CC1CCOC1 (stereo partly drawn) [Example 82, 3-[(7R)-2-(1H-indazol-5-ylamino)-7-methyl-6-oxo-8-(tetrahydrofuran-3-ylmethyl)-7,8-dihydropteridin-5(6H)-yl]benzonitrile] | ≤ 100
C[C@@H]1C(=O)N(c2cccc(C#N)c2)c2cnc(Nc3ccc4[nH]ncc4c3)nc2N1CC1CC(F)(F)C1 [Example 83, 3-[(7R)-8-[(3,3-difluorocyclobutyl)methyl]-2-(1H-indazol-5-ylamino)-7-methyl-6-oxo-7,8-dihydropteridin-5(6H)-yl]benzonitrile] | ≤ 100
N#Cc1cccc(N2C(=O)[C@H]3CCCN3c3nc(Nc4cc(F)c5[nH]ncc5c4)ncc32)c1 [Example 84, 3-[(6aR)-2-[(7-fluoro-1H-indazol-5-yl)amino]-6-oxo-6a,7,8,9-tetrahydropyrrolo[2,1-h]pteridin-5(6H)-yl]benzonitrile] | 100 to 1000
COc1ccc(N2C(=O)[C@@H](C)N(CCC(C)C)c3nc(Nc4cc(F)c5[nH]ncc5c4)ncc32)cc1OC [Example 85, (7R)-5-(3,4-dimethoxyphenyl)-2-[(7-fluoro-1H-indazol-5-yl)amino]-7-methyl-8-(3-methylbutyl)-7,8-dihydropteridin-6(5H)-one] | ≤ 100

Results, then the compound that gave them:

IC50 [nM] | SMILES
≤ 100 | CC(C)CCN1c2nc(Nc3cc(F)c4[nH]ncc4c3)ncc2N(c2cccc(C#N)c2)C(=O)[C@H]1C [Example 86, 3-[(7R)-2-[(7-fluoro-1H-indazol-5-yl)amino]-7-methyl-8-(3-methylbutyl)-6-oxo-7,8-dihydropteridin-5(6H)-yl]benzonitrile]
≤ 100 | CC(C)CCN1c2nc(Nc3cc(F)c4[nH]ncc4c3)ncc2N(c2cccnc2)C(=O)[C@H]1C [Example 87, (7R)-2-[(7-fluoro-1H-indazol-5-yl)amino]-7-methyl-8-(3-methylbutyl)-5-(pyridin-3-yl)-7,8-dihydropteridin-6(5H)-one]
≤ 100 | COc1ccc(N2C(=O)[C@@H](C)N(CCC(C)C)c3nc(Nc4cc(F)c5[nH]c(=O)oc5c4)ncc32)cc1OC [Example 88, (7R)-5-(3,4-dimethoxyphenyl)-2-[(4-fluoro-2-oxo-2,3-dihydro-1,3-benzoxazol-6-yl)amino]-7-methyl-8-(3-methylbutyl)-7,8-dihydropteridin-6(5H)-one]
≤ 100 | CC(C)CCN1c2nc(Nc3cc(F)c(O)c(F)c3)ncc2N(c2cccc(C#N)c2)C(=O)[C@H]1C [Example 89, 3-[(7R)-2-[(3,5-difluoro-4-hydroxyphenyl)amino]-7-methyl-8-(3-methylbutyl)-6-oxo-7,8-dihydropteridin-5(6H)-yl]benzonitrile]
≤ 100 | CC(C)CCN1c2nc(Nc3cc(F)c4[nH]c(=O)oc4c3)ncc2N(c2cccc(C#N)c2)C(=O)[C@H]1C [Example 90, 3-[(7R)-2-[(4-fluoro-2-oxo-2,3-dihydro-1,3-benzoxazol-6-yl)amino]-7-methyl-8-(3-methylbutyl)-6-oxo-7,8-dihydropteridin-5(6H)-yl]benzonitrile]
≤ 100 | COc1ccc(N2C(=O)[C@@H](C)N(CCC(C)C)c3nc(Nc4cc(F)c5[nH]ncc5c4)ncc32)cc1C#N [Example 91, 5-[(7R)-2-[(7-fluoro-1H-indazol-5-yl)amino]-7-methyl-8-(3-methylbutyl)-6-oxo-7,8-dihydropteridin-5(6H)-yl]-2-methoxybenzonitrile]
≤ 100 | CCOc1ccc(N2C(=O)[C@@H](C)N(CCC(C)C)c3nc(Nc4cc(F)c5[nH]ncc5c4)ncc32)cc1C#N [Example 92, 2-ethoxy-5-[(7R)-2-[(7-fluoro-1H-indazol-5-yl)amino]-7-methyl-8-(3-methylbutyl)-6-oxo-7,8-dihydropteridin-5(6H)-yl]benzonitrile]
≤ 100 | CC(C)CCN1c2nc(Nc3cc(F)c4[nH]ncc4c3)ncc2N(c2ccc(OC(C)C)c(C#N)c2)C(=O)[C@H]1C [Example 93, 5-[(7R)-2-[(7-fluoro-1H-indazol-5-yl)amino]-7-methyl-8-(3-methylbutyl)-6-oxo-7,8-dihydropteridin-5(6H)-yl]-2-(propan-2-yloxy)benzonitrile]
100 to 1000 | CC(C)N1c2nc(Nc3ccc4c(c3)CC(=O)N4)ncc2N(c2ccccc2)C(=O)C1C (stereo not drawn) [Example 94, 7-methyl-2-[(2-oxo-2,3-dihydro-1H-indol-5-yl)amino]-5-phenyl-8-(propan-2-yl)-7,8-dihydropteridin-6(5H)-one]
≤ 100 | CC1C(=O)N(c2ccccc2)c2cnc(Nc3ccc4[nH]ncc4c3)nc2N1c1ccccc1 (stereo not drawn) [Example 178, 2-(1H-indazol-5-ylamino)-7-methyl-5,8-diphenyl-7,8-dihydropteridin-6(5H)-one]
≤ 100 | C[C@@H]1C(=O)N(c2cccc(C#N)c2)c2cnc(Nc3ccc4[nH]ncc4c3)nc2N1C1CCC(C)(C)CC1 [Example 207, 3-[(7R)-8-(4,4-dimethylcyclohexyl)-2-(1H-indazol-5-ylamino)-7-methyl-6-oxo-7,8-dihydropteridin-5(6H)-yl]benzonitrile]
≤ 100 | C[C@@H]1C(=O)N(c2cccnc2)c2cnc(Nc3cc(F)c4[nH]ncc4c3)nc2N1C1CCC(C)(C)CC1 [Example 208, (7R)-8-(4,4-dimethylcyclohexyl)-2-[(7-fluoro-1H-indazol-5-yl)amino]-7-methyl-5-(pyridin-3-yl)-7,8-dihydropteridin-6(5H)-one]
≤ 100 | C[C@@H]1C(=O)N(c2cccc(C#N)c2)c2cnc(Nc3cc(F)c4[nH]ncc4c3)nc2N1C1CCC(C)(C)CC1 [Example 209, 3-[(7R)-8-(4,4-dimethylcyclohexyl)-2-[(7-fluoro-1H-indazol-5-yl)amino]-7-methyl-6-oxo-7,8-dihydropteridin-5(6H)-yl]benzonitrile]
≤ 100 | COc1ccc(N2C(=O)[C@@H](C)N(C3CCC(C)(C)CC3)c3nc(Nc4cc(F)c5[nH]ncc5c4)ncc32)cc1OC [Example 210, (7R)-5-(3,4-dimethoxyphenyl)-8-(4,4-dimethylcyclohexyl)-2-[(7-fluoro-1H-indazol-5-yl)amino]-7-methyl-7,8-dihydropteridin-6(5H)-one]
